According to the supplement of paper PMC10011410:
± gives the standard deviation of the averaged measurements.

Legend:
U-2 OS [1] = test: intracellular GSH:GSSG ratio (calculated); higher = more reduced glutathione pool; conditions: 24 h
Description: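 Intracellular glutathione in U-2 OS cells after 24 h compound treatment at 5, 10 and 20 uM (some at 40 and 80 uM). Total glutathione and GSSG were measured with the GSH/GSSG-Glo kit, and the GSH:GSSG ratio was calculated. Mean of five technical replicate plates.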

U-2 OS [2] = test: cell viability (CellTiter-Glo) relative to DMSO (% of control); higher = more viable; conditions: 24 h
Description: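 Cell viability of U-2 OS cells by CellTiter-Glo after 24 h compound treatment at 5, 10 and 20 uM (some at 40 and 80 uM), measured in parallel with the glutathione assay, as percent of DMSO control. Five technical replicate plates, averaged.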

U-2 OS [3] = test: total intracellular glutathione (GSH + GSSG) relative to DMSO (% of control); higher = more glutathione; conditions: 24 h
Description: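 Total intracellular glutathione (GSH + GSSG) in U-2 OS cells by GSH/GSSG-Glo after 24 h compound treatment at 5, 10 and 20 uM (some at 40 and 80 uM), as percent of DMSO control. Five technical replicate plates, averaged.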

U-2 OS [4] = test: cell painting activity score (Mahalanobis distance from DMSO wells); higher = stronger morphological phenotype; conditions: 24 h
Outline: (§1)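 In this cell painting assay, roughly 1,500 U-2 OS cells per well in 384-well plates were pin-tool treated at 37 °C for 24 h, typically at six 2-fold steps from 20 μM down to 625 nM. Cells were stained with MitoTracker, concanavalin A, phalloidin, wheat germ agglutinin, Hoechst and SYTO 14, imaged on an Opera Phenix, and analysed in CellProfiler with normalization to same-plate DMSO cells. Reported values are means of four replicate plates, with the activity score defined as the Mahalanobis distance from DMSO wells and cell count defined relative to DMSO wells.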

U-2 OS [5] = test: relative cell count vs DMSO (cell painting) (fraction of DMSO control); higher = more cells remaining (less cytotoxic); conditions: 24 h
Outline: as §1

U-2 OS [6] = test: AUC of culture confluence over time (live-cell imaging) (AUC (confluence % x time)); higher = more confluent culture (less growth inhibition)
Outline: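 Each value is the area under a curve of confluence over time for U-2 OS cells. The cells, in F-12K medium with 10% FBS, were plated at 750 per well in 384-well plates and dosed by pin tool 24 h later, most compounds at 20, 10 and 5 μM with 0.2% DMSO. They were held at 37 °C and imaged every 4 h for up to 60 h.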

| SMILES | intracellular GSH:GSSG ratio (U-2 OS [1]; 5 µM) | intracellular GSH:GSSG ratio (U-2 OS [1]; 10 µM) | intracellular GSH:GSSG ratio (U-2 OS [1]; 20 µM) | cell viability (U-2 OS [2]; 5 µM) | cell viability (U-2 OS [2]; 10 µM) | cell viability (U-2 OS [2]; 20 µM) | total intracellular glutathione (U-2 OS [3]; 5 µM) | total intracellular glutathione (U-2 OS [3]; 10 µM) | total intracellular glutathione (U-2 OS [3]; 20 µM) | cell painting activity score (U-2 OS [4]; 0.625 µM) | cell painting activity score (U-2 OS [4]; 1.25 µM) | cell painting activity score (U-2 OS [4]; 2.5 µM) | cell painting activity score (U-2 OS [4]; 5 µM) | cell painting activity score (U-2 OS [4]; 10 µM) | cell painting activity score (U-2 OS [4]; 20 µM) | relative cell count (U-2 OS [5]; 0.625 µM) | relative cell count (U-2 OS [5]; 1.25 µM) | relative cell count (U-2 OS [5]; 2.5 µM) | relative cell count (U-2 OS [5]; 5 µM) | relative cell count (U-2 OS [5]; 10 µM) | relative cell count (U-2 OS [5]; 20 µM) | intracellular GSH:GSSG ratio (U-2 OS [1]; 40 µM) | intracellular GSH:GSSG ratio (U-2 OS [1]; 80 µM) | cell viability (U-2 OS [2]; 40 µM) | cell viability (U-2 OS [2]; 80 µM) | total intracellular glutathione (U-2 OS [3]; 40 µM) | total intracellular glutathione (U-2 OS [3]; 80 µM) | cell painting activity score (U-2 OS [4]; 40 µM) | cell painting activity score (U-2 OS [4]; 80 µM) | relative cell count (U-2 OS [5]; 40 µM) | relative cell count (U-2 OS [5]; 80 µM) | AUC of culture confluence over time (U-2 OS [6]; 5 µM) | AUC of culture confluence over time (U-2 OS [6]; 10 µM) | AUC of culture confluence over time (U-2 OS [6]; 20 µM) | AUC of culture confluence over time (U-2 OS [6]; 40 µM) | AUC of culture confluence over time (U-2 OS [6]; 80 µM) |
| --- | --- | --- | --- | --- | --- | --- | --- | --- | --- | --- | --- | --- | --- | --- | --- | --- | --- | --- | --- | --- | --- | --- | --- | --- | --- | --- | --- | --- | --- | --- | --- | --- | --- | --- | --- | --- |
| S=C(Nc1ccccc1)Nc1nc(-c2ccccc2)[n+](-c2ccccc2)s1 | 27.8 | 18.7 | 29 | 91.8 ± 2.3 | 106 ± 3.2 | 97.5 ± 6.9 | 116 ± 14 | 96.7 ± 11 | 130 ± 9.9 | 3.57 | 4.45 | 5.25 | 3.52 | 6.94 | 3.81 | 0.907 | 0.951 | 0.994 | 0.926 | 0.955 | 0.94 | – | – | – | – | – | – | – | – | – | – | – | – | – | – | – |
| CC1=CC(=O)c2ccccc2C1=O | 17.1 | 2.21 | 1.63 | 40 ± 5.8 | 1.01 ± 0.2 | 1.22 ± 0.21 | 36.9 ± 4.5 | 4.53 ± 0.61 | 3.31 ± 0.24 | 4.82 | 3.53 | 4.48 | 6.92 | 10.5 | 17.1 | 0.971 | 0.921 | 0.979 | 0.89 | 0.643 | 0.277 | 0.957 | 2.69 | 1.15 ± 0.15 | 0.692 ± 0.12 | 2.94 ± 0.44 | 2.93 ± 0.45 | – | – | – | – | – | – | – | – | – |
| CCCCCCCCCCCC1=C(O)C(=O)C=C(O)C1=O | 32.2 | 27.4 | 35.5 | 102 ± 5.8 | 97.6 ± 2.5 | 98.7 ± 5.4 | – | – | – | 4.78 | 4.55 | 7.31 | 4.7 | 8.2 | 25 | 0.898 | 0.848 | 0.944 | 0.907 | 0.478 | 0.08 | 15.8 | 31.4 | 70.1 ± 25 | 93.3 ± 4.2 | – | – | 22.2 | 21.8 | 0.237 | 0.332 | – | – | – | – | – |
| CC1=C(CO)C(=O)O[C@H](C(C)[C@H]2CC[C@@H]3[C@H]4C[C@H]5O[C@@]56[C@@H](O)C=CC(=O)[C@@]6(C)C4CC[C@@]23C)C1 (stereo partly drawn) | 1.55 | 4.28 | 0.143 | 55.7 ± 8.4 | 42.7 ± 2 | 59.4 ± 12 | 43.6 ± 5.1 | 39.2 ± 4.1 | 32.8 ± 3.3 | 10.3 | 16.1 | 17.1 | 17.6 | 29 | 20.3 | 0.988 | 0.352 | 0.402 | 0.38 | 0.146 | 0.0181 | – | – | – | – | – | – | – | – | – | – | – | – | – | – | – |
| O=S1(=O)CC(Sc2cccs2)c2ccccc21 (stereo not drawn) | 25.2 | 24.8 | 30 | 103 ± 5.5 | 100 ± 5.5 | 104 ± 4.5 | 115 ± 4.9 | 107 ± 9.4 | 120 ± 8.6 | 3.43 | 3.86 | 4.15 | 3.78 | 3.12 | 10.7 | 1.02 | 0.974 | 0.948 | 1 | 0.984 | 0.61 | – | – | – | – | – | – | – | – | – | – | – | – | – | – | – |
| CC(Cc1ccc(O)c(O)c1)C(C)Cc1ccc(O)c(O)c1 (stereo not drawn) | 24 | 47.5 | 22.3 | 101 ± 4 | 104 ± 8.2 | 100 ± 5.4 | – | – | – | 4.39 | 8.68 | 11.8 | 13.1 | 15.4 | 12.1 | 0.839 | 0.852 | 0.896 | 0.816 | 0.835 | 0.359 | 22.5 | – | 87.1 ± 6.5 | 0.624 ± 0.073 | – | – | 17.4 | 22.6 | 0.261 | 0.228 | 42.1 | 39.8 | 43.8 | 28.7 | 19.1 |
| CC(C)([C@](C1=O)(C2=O)C/C=C(C)\C)[C@@H](C[C@]31C[C@@H](C(C)(OC3=C2C(C4=CC(O)=C(C=C4)O)=O)C)C/C=C(C)\C)C/C=C(C)\C | 27 | 22.3 | 10.9 | 99.7 ± 2.4 | 62.6 ± 14 | 43.4 ± 17 | – | – | – | 3.69 | 3.85 | 6.36 | 7.13 | 13.5 | 18.6 | 1.21 | 1.12 | 1.19 | 1.15 | 1.04 | 0.492 | – | 17.8 | 0.646 ± 0.18 | 0.745 ± 0.2 | – | – | – | – | – | – | – | – | – | – | – |
| O=C(CSC1CC(=O)N(c2cccc(Cl)c2)C1=O)Nc1ccc(Br)cc1 (stereo not drawn) | 28 | 31.9 | 26.5 | 105 ± 8.8 | 99.5 ± 4.2 | 107 ± 5.8 | 94.6 ± 4.8 | 93.9 ± 4 | 95.2 ± 5.6 | 3.18 | 3.28 | 3.09 | 4.23 | 3.79 | 3.43 | 1.13 | 1.13 | 1.06 | 1.06 | 1.1 | 1.12 | – | – | – | – | – | – | – | – | – | – | – | – | – | – | – |
